The source made the active and inactive calls. The calls are words filed in the database; no cut-off is given here.
How the values were obtained:
Type in all cases: functional
Conditions in all cases: for zone of inhibition at 100 µg/mL: read-out: DIZ
Proteus vulgaris = assay: Antibacterial activity against Proteus vulgaris at 100 ug/ml after 24 hrs
Escherichia coli = assay: Antibacterial activity against Escherichia coli at 100 ug/ml after 24 hrs
Bacillus subtilis = assay: Antibacterial activity against Bacillus subtilis at 100 ug/ml after 24 hrs
Muscodor albus = assay: Antibacterial activity against Muscodor albus at 100 ug/ml after 24 hrs

| Compound | zone of inhibition at 100 µg/mL (Proteus vulgaris) | diameter of the inhibition zone (DIZ) (Escherichia coli) | zone of inhibition at 100 µg/mL (Bacillus subtilis) | zone of inhibition at 100 µg/mL (Muscodor albus) | zone of inhibition at 100 µg/mL (Escherichia coli) | diameter of the inhibition zone (DIZ) (Bacillus subtilis) | diameter of the inhibition zone (DIZ) (Proteus vulgaris) | diameter of the inhibition zone (DIZ) (Muscodor albus) |
| --- | --- | --- | --- | --- | --- | --- | --- | --- |
| O=C(CC(=O)c1cc(C(=O)CC(=O)c2ccc(Cl)cc2)c(O)cc1O)c1ccc(Cl)cc1 | 11 mm | inactive | 13.2 mm | 15 mm | – | – | – | – |
| Oc1cc(O)c(-c2cc(-c3cccnc3)[nH]n2)cc1-c1cc(-c2cccnc2)[nH]n1 | 15.4 mm | – | 14.2 mm | 15.3 mm | 15.2 mm | – | – | – |
| Oc1cc(O)c(-c2cc(-c3cccs3)[nH]n2)cc1-c1cc(-c2cccs2)[nH]n1 | 15.3 mm | – | – | 11.7 mm | 15.4 mm | inactive | – | – |
| COc1ccc(-c2cc(-c3cc(-c4cc(-c5ccc(OC)cc5)[nH]n4)c(O)cc3O)n[nH]2)cc1 | – | – | 15.5 mm | 14.4 mm | 12.1 mm | – | inactive | – |
| Cc1ccc(-c2cc(-c3cc(-c4cc(-c5ccc(C)cc5)[nH]n4)c(O)cc3O)n[nH]2)cc1 | 15.7 mm | – | 12.4 mm | – | 14.7 mm | – | – | inactive |
| O=C(CC(=O)c1cc(C(=O)CC(=O)c2cccnc2)c(O)cc1O)c1cccnc1 | 14.2 mm | – | 11.9 mm | 15.7 mm | 16.4 mm | – | – | – |
| Oc1cc(O)c(-c2cc(-c3ccc(Cl)cc3)on2)cc1-c1cc(-c2ccc(Cl)cc2)on1 | 13.2 mm | – | 13.7 mm | 15 mm | 12.7 mm | – | – | – |
| COc1ccc(C(=O)CC(=O)c2cc(C(=O)CC(=O)c3ccc(OC)cc3)c(O)cc2O)cc1 | – | – | 14.9 mm | 16.1 mm | 11.4 mm | – | inactive | – |
| O=C(CC(=O)c1cc(C(=O)CC(=O)c2cccs2)c(O)cc1O)c1cccs1 | 14.9 mm | – | 15.5 mm | 14.9 mm | 15.5 mm | – | – | – |
| Oc1cc(O)c(-c2cc(-c3ccccc3)[nH]n2)cc1-c1cc(-c2ccccc2)[nH]n1 | 15.2 mm | – | 12.2 mm | 14 mm | 15.2 mm | – | – | – |
| Cc1ccc(C(=O)CC(=O)c2cc(C(=O)CC(=O)c3ccc(C)cc3)c(O)cc2O)cc1 | 12.6 mm | – | 16.2 mm | 13.1 mm | 13.8 mm | – | – | – |
| NC[C@@H]1O[C@H](O[C@H]2[C@@H](O)[C@H](O[C@@H]3[C@@H](O)[C@H](N)C[C@H](N)[C@H]3O[C@H]3O[C@H](CN)[C@@H](O)[C@H](O)[C@H]3N)O[C@@H]2CO)[C@H](N)[C@@H](O)[C@@H]1O [FRAMYCETIN] | 25.3 mm | – | 26.1 mm | 25.8 mm | 26.1 mm | – | – | – |
| CC[C@H]1OC(=O)[C@H](C)[C@@H](O[C@H]2C[C@@](C)(OC)[C@@H](O)[C@H](C)O2)[C@H](C)[C@@H](O[C@@H]2O[C@H](C)C[C@H](N(C)C)[C@H]2O)[C@](C)(O)C[C@@H](C)C(=O)[C@H](C)[C@@H](O)[C@]1(C)O [ERYTHROMYCIN] | 25.1 mm | – | 27.1 mm | 26.1 mm | 27.4 mm | – | – | – |
| Oc1cc(O)c(-c2cc(-c3ccc(Cl)cc3)[nH]n2)cc1-c1cc(-c2ccc(Cl)cc2)[nH]n1 | 15.7 mm | – | 16.2 mm | 15.7 mm | 15 mm | – | – | – |
| O=C(CC(=O)c1cc(C(=O)CC(=O)c2ccccc2)c(O)cc1O)c1ccccc1 | 13.3 mm | – | 15.8 mm | 15.2 mm | 12.4 mm | – | – | – |
| Oc1cc(O)c(-c2cc(-c3cccs3)on2)cc1-c1cc(-c2cccs2)on1 | – | – | 13.2 mm | 16 mm | 12.5 mm | – | inactive | – |
| Cc1ccc(-c2cc(-c3cc(-c4cc(-c5ccc(C)cc5)on4)c(O)cc3O)no2)cc1 | 11.4 mm | inactive | 12.7 mm | 14.7 mm | – | – | – | – |
| COc1ccc(-c2cc(-c3cc(-c4cc(-c5ccc(OC)cc5)on4)c(O)cc3O)no2)cc1 | 15.4 mm | – | 16.5 mm | 15.9 mm | 14.3 mm | – | – | – |
| Oc1cc(O)c(-c2cc(-c3ccccc3)on2)cc1-c1cc(-c2ccccc2)on1 | 15.2 mm | – | 11.2 mm | – | 17 mm | – | – | inactive |
| Oc1cc(O)c(-c2cc(-c3cccnc3)on2)cc1-c1cc(-c2cccnc2)on1 | 11.9 mm | – | 15.8 mm | 16.1 mm | 12.4 mm | – | – | – |

Source: ChEMBL document CHEMBL2429819, “Synthesis, antibacterial screening, and POM analyses of novel bis-isoxazolyl/pyrazolyl-1,3-diols” (2013)
